According to US20100160339A1, “TREATING PANCREATITIS” (MAYO FOUNDATION FOR MEDICAL EDUCATION AND RESEARCH, priority 2007, published 2010):
“Also recorded” adds a separate entry of the source.

Legend:
Src-cortactin complex = assay: Dissociation of the Src-cortactin complex after 10 nM CCK (Src immunoprecipitation, blot for cortactin); format: cell-based, mice; conditions: 2 minutes, PP2 pre-incubation
Experimental: (§1) Acini were harvested in a buffer containing 20 mM HEPES (pH 7.4), 120 mM NaCl, 5 mM KCl, 1 mM MgCl2, 1 mM CaCl2, 10 mM glucose, 10 mM sodium pyruvate, 0.1% bovine serum albumin, and 0.01% soybean trypsin inhibitor with 100 units/mL collagenase, as described elsewhere (Torgerson and McNiven, J. Cell Sci., 111 (Pt. 19):2911-22 (1998)) were filtered through a 70 μm mesh and kept at 37° C. for two hours before use during which time these were pre-incubated with 20 μM of inhibitors (PP2 or SU6656), if necessary. Viability prior to use was >95% by trypan blue exclusion. The harvested acini were used as described elsewhere (Torgerson and McNiven, J. Cell Sci., 111 (Pt. 19):2911-22 (1998)).
(§2) Acini or tissue were homogenized in a buffer containing 50 mM Tris (pH 7.2), 150 mM NaCl, 0.5 mM EDTA, 1 mM EGTA, 2 mM DTT, 1 mM sodium orthovanadate, 25 mM NaF, and 1% NP-40, using a protease inhibitor cocktail (Complete; Cat. # 1873580; Roche) to prevent proteolysis. […] After Western blotting using appropriate protocols and dilutions of antibodies ( 1/100000 for AB3, 1/1000 for 4G10, 1/500 for SC-18, 1/1000 for PY416, 1/5000 for Yes, 1/200 for H-12 (c-Src), 1/200 for fyn, and 1/200 for Lyn) as recommended by the manufacturer, band intensity was quantified using Adobe Photoshop 6.0, and backgrounds were subtracted for the appropriate lanes. […] Quantification was performed from two or more experiments. […]

pancreatic acini [1] = assay: Suprastimulation-induced blebbing of acini (bleb number per 100 cells); format: cell-based, mice; conditions: 10 nM CCK, 94.2±4.1% without inhibitor, mean±SEM
Experimental: as §1, with “Cell Sci., 111 (Pt. 19):2911-22 (1998)) were filtered through a 70 μm mesh and kept at 37° C. for two hours before use during which time these were pre-incubated with 20 μM of inhibitors (PP2 or SU6656), if necessary.” left out
(§3) Acini were plated on plain glass coverslips as described elsewhere (Torgerson and McNiven, J. Cell Sci., 111 (Pt. 19):2911-22 (1998)), fixed with 2% paraformaldehyde, and permeabilized with 0.6% Triton X-100. The acini were then blocked with 5% normal goat serum followed by incubation with the primary antibodies (4F11 diluted 1/1000, SC-18 diluted 1/300, or anti-Yes diluted 1/1000) for one hour at room temperature followed by washing and incubation with secondary antibodies ( 1/500) with or without rhodamine phalloidin (100 nM) for 30 minutes. The acini were then washed and mounted using Prolong gold. Acini with 6-12 cells were randomly chosen for imaging. The number of blebs was counted along with the number of cells, and expressed as bleb number per 100 cells. The final number expressed as mean±SEM was from at least three different experiments. […]

Src = assay: Cortactin tyrosine phosphorylation in pancreatic acini suprastimulated with 10 nM CCK (immunoprecipitation, 4G10 western blot); format: cell-based, mice
Experimental: as §1, with “Cell Sci., 111 (Pt. 19):2911-22 (1998)) were filtered through a 70 μm mesh and kept at 37° C. for two hours before use during which time these were pre-incubated with 20 μM of inhibitors (PP2 or SU6656), if necessary.” left out
as §2

pancreatic acini [2] = assay: Basal relocation of cortactin and actin in suprastimulated acini (immunofluorescence); format: cell-based, mice; conditions: 10 nM CCK
Experimental: as §1, with “Cell Sci., 111 (Pt. 19):2911-22 (1998)) were filtered through a 70 μm mesh and kept at 37° C. for two hours before use during which time these were pre-incubated with 20 μM of inhibitors (PP2 or SU6656), if necessary.” left out
as §3

[3] = test system: suprastimulation-induced pancreatitis; assay: Caerulein-induced pancreatitis in vivo; design: species or system mice
From the text: Male 100-120 gm Sprauge Dawley (Harlan Laboratories, Indianapolis, Ind.) mice that were housed and fed under standard conditions were used. Caerulein, the CCK analog, was obtained from Research Plus (Bayonne, N.J.). Antibodies to phosphotyrosine (4G10) and cortactin (4F11) antibodies were obtained from Upstate (Charlottesville, Va.). Pan Src antibody (SC-18), Fyn (SC-16) and c-Src antibody H-12 were obtained from Santa Cruz (Santa Cruz, Calif.), and active Src (PY416), Yes and Lyn antibodies were obtained from Transduction Labs (Lexington, Ky.). Polyclonal antibody to cortactin (AB3) was produced as described elsewhere (Cao et al., Mol. Cell Biol., 23(6):2162-2170 (2003)). Secondary antibodies for immunofluorescence (Alexa 488 and Alexa 594) and Prolong gold were obtained from Invitrogen Corporation (Carlsbad, Calif.). Secondary antibodies for western blotting (goat anti-rabbit and goat anti-mouse HRP) were obtained from Affinity Bioreagents (Golden, Colo.). Collagenase type IV was obtained from Worthington Biochemical Corporation (Lakewood, N.J.). PP2 and SU6656 were obtained from Calbiochem (San Diego, Calif.) and were dissolved as a 1000× stock in DMSO. All other reagents were purchased from Sigma.
Animals (6 animals in each group) were given a single intraperitoneal injection of saline (control) or caerulein (20 μg/kg) in saline as described elsewhere (Bhagat et al., Gastroenterology, 122(1): 156-165 (2002)). After 6 hours, blood and tissue samples were harvested and frozen or fixed in 4% formaldehyde. When used, PP2 was dissolved in DMSO and given at a dose of 3 mg/kg in a 0.1-mL volume intraperitoneally 30 minutes before caerulein. Animals pretreated with vehicle were given DMSO only.
Five μm sections of paraffin-embedded pancreas and lung were stained with hematoxylin/eosin (H&E). For immunohistochemistry of pancreas, 5 μm sections were made from OCT embedded tissue, fixed with 4% paraformaldehyde, and immunostained as described herein. Serum amylase activity was measured colorimetrically using the Phadebas assay (Pharmacia Diagnostics, Portage, Mich.). Edema was measured by subtracting the dry weight from the wet weight and presented as a percentage of wet weight.
The results reported represent the mean±SEM of values obtained from three or more experiments and compared using Student's t test when the data consisted of only two groups or ANOVA when comparing three or more groups. If ANOVA indicated a significant difference, the data were analyzed by using Tukey's method as a post-hoc test for the difference between groups. A p value of 0.05 was considered significant.

SMILES	dissociation of the Src-cortactin complex (Src-cortactin complex)	blebbing (pancreatic acini [1]; PP2 20 μM)	cortactin phosphorylation (Src; acini pre-incubated with PP2 at 20 μM)	basal relocation of cortactin and actin (pancreatic acini [2]; PP2 20 μM)	cortactin phosphorylation in pancreas in vivo ([3]; 3 mg/kg PP2 intraperitoneally 30 minutes before 20 μg/kg caerulein, preliminary data)	increase in serum amylase over controls ([3]; PP2 3 mg/kg ip 30 minutes before caerulein 20 μg/kg, 6 hours, CER+Veh 4.8±0.5 fold, p <0.02)	pancreatic edema as measured by water content ([3]; PP2 3 mg/kg ip 30 minutes before caerulein 20 μg/kg, 6 hours, CER+Veh 81.1±0.8%, control 75.1±0.5%, p<0.05)	morphology of the pancreas (vacuolation, blebbing-like fragmentation, apoptosis, interstitial edema, inflammatory cells; H&E) ([3]; PP2 3 mg/kg ip 30 minutes before caerulein, 6 hours)	basolateral relocation of actin and cortactin in pancreas cryosections ([3]; PP2 3 mg/kg prophylactically)	blebbing (pancreatic acini [1]; SU6656 10 μM)	cortactin phosphorylation (Src; acini pre-incubated with SU6656 at 10 μM)	basal relocation of cortactin and actin (pancreatic acini [2]; SU6656 10 μM)
CC(C)(C)n1nc(-c2ccc(Cl)cc2)c2c(N)ncnc21 [PP2]	prevented	16.9±6.0%	completely prevented cortactin phosphorylation	prevented this basal relocation of cortactin; also recorded: prevented the basal relocation of cortactin	adequate to inhibit cortactin phosphorylation	2.4±0.2 fold	76.7±0.6%	dramatically prevented these phenomena	prevented this basolateral relocation	–	–	–
CN(C)S(=O)(=O)c1ccc2c(c1)/C(=C/c1cc3c([nH]1)CCCC3)C(=O)N2 [SU6656]	–	–	–	–	–	–	–	–	–	21.0±6.0%	completely prevented cortactin phosphorylation	prevented the basal relocation of cortactin
